“Also recorded” adds a separate entry of the source.
Tests used:
[1] = tested on: DU145 xenograft; assay: DU145 xenograft tumor growth; type: in vivo, mouse; conditions: nude mice
Experimental: (§1) In another animal experiment, we compared the anti-prostate tumor growth effect of S6, F5, and PE1 (each 300 mg/kg bid) to enzalutamide (10 mg/kg qd) (targeting on AR) on LNCaP (androgen dependent) xenograft tumor and Du145 xenograft tumor in nude mice for two weeks.

[2] = tested on: LNCaP (androgen dependent) xenograft tumor; assay: LNCaP xenograft tumor growth; type: in vivo, nude mice; conditions: S6, F5, PE1 each 300 mg/kg bid; enzalutamide 10 mg/kg qd; two weeks
Experimental: as §1

[3] = molecular target: androgen receptor (Homo sapiens, UniProt P10275); assay: PSA promoter luciferase reporter assay, 22RV1 AR-luciferase reporter cells; type: cell-based; conditions: for anti-androgen receptor (AR) activity, luciferase reporter assay: 22RV1 AR-luciferase reporter cells, with DHT; for anti-androgen receptor activity, luciferase reporter assay: in present of DHT 10 nM
Sequence of androgen receptor (P10275 whole entry): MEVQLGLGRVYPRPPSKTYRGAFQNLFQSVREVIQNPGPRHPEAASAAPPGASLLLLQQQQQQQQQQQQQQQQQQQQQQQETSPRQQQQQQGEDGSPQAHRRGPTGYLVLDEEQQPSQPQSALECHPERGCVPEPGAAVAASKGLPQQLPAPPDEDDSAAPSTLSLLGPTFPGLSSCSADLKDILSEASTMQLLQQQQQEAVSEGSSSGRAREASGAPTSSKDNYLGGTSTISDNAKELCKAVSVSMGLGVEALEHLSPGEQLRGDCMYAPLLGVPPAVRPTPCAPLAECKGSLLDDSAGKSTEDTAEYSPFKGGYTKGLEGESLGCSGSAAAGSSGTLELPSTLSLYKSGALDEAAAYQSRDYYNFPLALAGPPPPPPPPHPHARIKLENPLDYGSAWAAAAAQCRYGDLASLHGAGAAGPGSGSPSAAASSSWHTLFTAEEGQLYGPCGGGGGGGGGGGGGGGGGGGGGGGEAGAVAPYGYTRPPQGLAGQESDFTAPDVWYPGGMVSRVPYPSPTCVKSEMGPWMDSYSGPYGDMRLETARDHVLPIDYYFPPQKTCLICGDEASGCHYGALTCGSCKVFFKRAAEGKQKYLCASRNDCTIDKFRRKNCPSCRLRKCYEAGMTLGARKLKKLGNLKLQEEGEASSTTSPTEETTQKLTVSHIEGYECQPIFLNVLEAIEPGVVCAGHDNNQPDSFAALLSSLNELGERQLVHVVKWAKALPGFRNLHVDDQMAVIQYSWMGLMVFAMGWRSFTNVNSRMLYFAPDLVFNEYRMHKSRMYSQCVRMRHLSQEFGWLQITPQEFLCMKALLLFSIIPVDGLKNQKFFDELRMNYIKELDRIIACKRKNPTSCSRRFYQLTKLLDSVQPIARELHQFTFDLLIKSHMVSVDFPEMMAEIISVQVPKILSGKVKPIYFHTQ
Experimental: 22RV1 prostate cancer cells were used in the screening study. 22RV1 cell lines were stably transfected with PSA promoter-PGL4.2 luciferase reporter. 25 nM) H T was used to induce androgen receptor for 24 h.
22RV1 androgen reporter cells were treated with herbal extracts at 30, 100, 300, and 1000 μg/ml for 24 h in a 37° C.-CO2 incubator with or without 25 nM DHT which was used androgen receptor activity. Cells were lysed using luciferase lysis buffer after which luciferase buffer with luciferin was added to generate luminescence. Luminescence was recorded using a luminescence microplate reader.

[4] = tested on: 22RV1 xenograft; assay: 22RV1 xenograft tumor growth; type: in vivo, mouse; conditions: gallic acid 23 mg/kg BID orally, nude mice
Excerpt: E5 may have higher selectively to inhibit prostate cancer with AR protein in vivo. I2 may have higher selectively to inhibit prostate cancer without AR protein expression in vivo.

In the case of CNC(=O)c1ccc(N2C(=S)N(c3ccc(C#N)c(C(F)(F)F)c3)C(=O)C2(C)C)cc1F [enzalutamide, reference compound], the “growth of Du145 xenograft tumor” value ([1]; S6, F5, PE1 each 300 mg/kg bid, enzalutamide 10 mg/kg qd, two weeks) is reported as “not Du145 tumors” and the “growth of LNCaP xenograft tumor” value [2] is reported as “effectively inhibited”.
With Oc1cc(O)c2c(c1)O[C@H](c1cc(O)c(O)c(O)c1)[C@H](O)C2 [Epigallocatechin] the “anti-androgen receptor (AR) activity, luciferase reporter assay” value (from here on “anti-androgen receptor (AR) activity”) [3] was “showed inhibition; also recorded: different potency on inhibiting AR” and the “anti-androgen receptor activity, luciferase reporter assay” value [3] was “highest potency against AR”.
In the case of O=C(O)c1cc(O)c2c(c1)[C@H]([C@@H]1c3cc(CO)cc(O)c3C(=O)c3c(O[C@@H]4O[C@H](CO)[C@@H](O)[C@H](O)[C@H]4O)cccc31)c1cccc(O[C@@H]3O[C@H](CO)[C@@H](O)[C@H](O)[C@H]3O)c1C2=O [sennoside D], the “anti-androgen receptor (AR) activity” value [3] is reported as “no”.
O=C(O)c1cc(O)c2c(c1)[C@H]([C@H]1c3cc(CO)cc(O)c3C(=O)c3c(O[C@@H]4O[C@H](CO)[C@@H](O)[C@H](O)[C@H]4O)cccc31)c1cccc(O[C@@H]3O[C@H](CO)[C@@H](O)[C@H](O)[C@H]3O)c1C2=O [sennoside C] was tested, and the “anti-androgen receptor (AR) activity” value [3] was “no”.
With O=C(O)c1cc(O)c(O)c(O)c1 [gallic acid] the “in vivo anti-tumor activity, Du145 tumor” value ([1]; gallic acid 23 mg/kg BID orally) was “exhibit in vivo anti-tumor activity” and the “in vivo anti-tumor activity, 22RV1 tumor” value [4] was “exhibit in vivo anti-tumor activity”.
Oc1cc(O)c2c(c1)O[C@H](c1cc(O)c(O)c(O)c1)[C@@H](O)C2 [gallocatechin] was tested, and the “anti-androgen receptor (AR) activity” value [3] was “showed inhibition; also recorded: different potency on inhibiting AR” and the “anti-androgen receptor activity, luciferase reporter assay” value [3] was “found to have anti-androgen receptor activity”.

Source: patent publication US11839639B2, “Inhibition of androgen receptor by extracts of medicinal herbs and compositions thereof” (YALE UNIVERSITY, priority 2017, dated 2023)
